For series [1] the following is noted: human.
The conditions of series [2]: human. This is another data set of the same source.
A short description of series [3]: Times to onset, minimal and maximal, observed in the indexed observations. [column 'DELAI' in source]. The settings on record: human.
For series [4] the following is noted: human. The source holds these as a separate data set.
Series [5] is described as follows: Proposed mechanism(s) of liver damage. [column 'MEC' in source]. The settings on record: human.
The conditions of series [6]: human. The source holds these as a separate data set.
The conditions of series [7]: human. The source holds these as a separate data set.
The conditions of series [8]: human. The source holds these as a separate data set.
The conditions of series [9]: human. This is another data set of the same source.
For series [10] the following is noted: human, serum.
For series [11] the following is noted: human. This is another data set of the same source.
For series [12] the following is noted: human. This is another data set of the same source.
For series [13] the following is noted: human, serum. The source holds these as a separate data set.
The conditions of series [14]: human, serum, 4383 h.
Series [15] in a line: Highest frequency of acute liver toxicity observed during clinical trials, expressed as a percentage. [column '% AIGUE' in source]. The settings on record: human.
Series [16] is described as follows: Highest frequency of moderate liver toxicity observed during clinical trials, expressed as a percentage. [column '% BIOL' in source]. As to conditions: human.
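For Hepatotoxicity (association with vascular disease) in this document: count of indexed literature references reporting vascular liver injury in humans, e.g. peliosis hepatitis, hepatic veno-occlusive disease or Budd-Chiari syndrome.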
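For Hepatotoxicity (benign tumour) in this document: value is a count of indexed literature references citing a benign tumour confirmed by histopathology.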
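For Hepatotoxicity (choleostasis) in this document: human cholestatic liver injury, shown by histopathology or by peak ALT or AST elevation over alkaline phosphatase ratio below 2, value counts indexed literature reports.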
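For Hepatotoxicity (chronic liver disease) in this document: chronic liver injury confirmed by histopathology or persistently raised serum aminotransferase activity beyond 6 months, value given as the count of indexed literature references.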
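For Hepatotoxicity (cirrhosis) in this document: value is a count of indexed literature references reporting cirrhosis confirmed by histopathology.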
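For Hepatotoxicity (cytolytic) in this document: human cytolytic liver injury, shown by histopathology or by a ratio above 5 of peak ALT or AST elevation to alkaline phosphatase elevation, value counts indexed references.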
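For Hepatotoxicity (granulomatous hepatitis) in this document: value is a count of indexed literature references reporting granulomatous liver disease confirmed by histopathology.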
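For Hepatotoxicity (malignant tumour) in this document: malignant tumour confirmed by histopathology, value gives the count of indexed literature references reporting it.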
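For Hepatotoxicity (severe hepatitis) in this document: human clinical data: severe hepatitis, meaning potentially life-threatening liver failure or clinically observed cases, the value counts how many indexed literature references report it.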
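For Hepatotoxicity (steatosis) in this document: steatosis confirmed by histopathology, value is the count of indexed references.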

Regarding `CNC(=O)c1c(I)c(C(=O)NCC(=O)Nc2c(I)c(C(=O)O)c(I)c(C(=O)NCCO)c2I)c(I)c(N(C)C(C)=O)c1I` [IOXAGLIC ACID], in [1], the “Hepatotoxicity (severe hepatitis)” value came to 0. In addition, the “Hepatotoxicity (benign tumour)” value in [2] came to 0. The “Hepatotoxicity (time to onset)” value in series [3] worked out at 1 days. In series [4], the “Hepatotoxicity (granulomatous hepatitis)” value is given as 0. In addition, the “Hepatotoxicity (mechanism)” value in series [5] was “Allergic”. Also, the “Hepatotoxicity (association with vascular disease)” value in series [6] stood at 0. Further, the “Hepatotoxicity (steatosis)” value in series [7] came to 0. Further, in series [8], the “Hepatotoxicity (malignant tumour)” value is recorded as 0. Moreover, in series [9], the “Hepatotoxicity (choleostasis)” value is 0. Also, the “Hepatotoxicity (acute)” value in [10] worked out at 1; in series [15] it was 0%. Moreover, the “Hepatotoxicity (cytolytic)” value in [11] was determined as 1. Besides, the “Hepatotoxicity (cirrhosis)” value in series [12] is 0. Also, the “Hepatotoxicity (moderate)” value amounted to 0 in series [13] and 0% in [16]. For the same compound, the “Hepatotoxicity (chronic liver disease)” value in series [14] was 0.
`CC1=C(/C=C/C(C)=C/C=C/C(C)=C\C(=O)O)C(C)(C)CCC1` [ISOTRETINOIN]: in series [1], the “Hepatotoxicity (severe hepatitis)” value stood at 0. Also, in series [2], the “Hepatotoxicity (benign tumour)” value is recorded as 0. The “Hepatotoxicity (time to onset)” value in series [3] is on record as 4 months. The “Hepatotoxicity (granulomatous hepatitis)” value in series [4] came out at 0. Moreover, in series [5], the “Hepatotoxicity (mechanism)” value is reported as “Dose-dependant”. Further, the “Hepatotoxicity (association with vascular disease)” value in series [6] worked out at 0. Also, the “Hepatotoxicity (steatosis)” value in series [7] was determined as 1. In addition, the “Hepatotoxicity (malignant tumour)” value in [8] is on record as 0. For the same compound, in [9], the “Hepatotoxicity (choleostasis)” value is on record as 0. The “Hepatotoxicity (acute)” value in [10] is recorded as 3; in [15], 8.8%. Moreover, in [11], the “Hepatotoxicity (cytolytic)” value is 1. Moreover, in [12], the “Hepatotoxicity (cirrhosis)” value is 0. In addition, the figures for the “Hepatotoxicity (moderate)” value in [13] and in series [16] were 35 and 44.4%, respectively. The “Hepatotoxicity (chronic liver disease)” value in series [14] was 0.
For `CC(=O)CCC1C(=O)N(c2ccccc2)N(c2ccccc2)C1=O` [KEBUZONE], in series [1], the “Hepatotoxicity (severe hepatitis)” value turned out to be 0. In [2], the “Hepatotoxicity (benign tumour)” value was 0. In addition, in series [3], the “Hepatotoxicity (time to onset)” value is given as 1 week - 1 month. In addition, the “Hepatotoxicity (granulomatous hepatitis)” value in [4] amounted to 0. For the same compound, the “Hepatotoxicity (mechanism)” value in series [5] was “Allergic”. Moreover, the “Hepatotoxicity (association with vascular disease)” value in [6] is 0. Moreover, in series [7], the “Hepatotoxicity (steatosis)” value was determined as 0. The “Hepatotoxicity (malignant tumour)” value in series [8] was 0. The “Hepatotoxicity (choleostasis)” value in series [9] turned out to be 3. For the same compound, the “Hepatotoxicity (acute)” value in [10] was found to be 4; in series [15], 2.7%. In series [11], the “Hepatotoxicity (cytolytic)” value is listed as 3. The “Hepatotoxicity (cirrhosis)” value in [12] was 0. In addition, the “Hepatotoxicity (moderate)” value in [13] is 1; in [16] it was 26.7%. For the same compound, the “Hepatotoxicity (chronic liver disease)” value in [14] is reported as 0.
In the case of `CNCCCC12CCC(c3ccccc31)c1ccccc12` [MAPROTILINE], in series [1] (Liver), the “Hepatotoxicity (severe hepatitis)” value is reported as 0. Besides, the “Hepatotoxicity (benign tumour)” value in series [2] is on record as 0. Further, the “Hepatotoxicity (time to onset)” value in [3] was 2 days - 4 years. Besides, in series [4] (Liver), the “Hepatotoxicity (granulomatous hepatitis)” value is reported as 0. Besides, the “Hepatotoxicity (mechanism)” value in series [5] (Liver) is “Dose-dependant”. In addition, the “Hepatotoxicity (association with vascular disease)” value in series [6] stood at 0. In addition, the “Hepatotoxicity (steatosis)” value in [7] stood at 0. In series [8], the “Hepatotoxicity (malignant tumour)” value is given as 0. Besides, the “Hepatotoxicity (choleostasis)” value in series [9] (Liver) stood at 4. Moreover, the “Hepatotoxicity (acute)” value in [10] is reported as 8; in [15] (Liver), 0%. In series [11] (Liver), the “Hepatotoxicity (cytolytic)” value turned out to be 7. Further, the “Hepatotoxicity (cirrhosis)” value in [12] is reported as 0. Further, the “Hepatotoxicity (moderate)” value was determined as 5 in [13] and 25% in series [16] (Liver). Further, in [14], the “Hepatotoxicity (chronic liver disease)” value is on record as 0.
For the compound `O=C1c2c(O)ccc(O)c2C(=O)c2c(NCCNCCO)ccc(NCCNCCO)c21` [MITOXANTRONE], the “Hepatotoxicity (severe hepatitis)” value in [1] is listed as 2. Further, the “Hepatotoxicity (benign tumour)” value in series [2] worked out at 0. Besides, in series [3], the “Hepatotoxicity (time to onset)” value stood at 4 days - 24 days. Also, in [4], the “Hepatotoxicity (granulomatous hepatitis)” value stood at 0. Further, the “Hepatotoxicity (mechanism)” value in series [5] is given as “Dose-dependant”. The “Hepatotoxicity (association with vascular disease)” value in series [6] came out at 0. Moreover, in series [7], the “Hepatotoxicity (steatosis)” value is given as 0. The “Hepatotoxicity (malignant tumour)” value in series [8] is recorded as 0. Also, in series [9], the “Hepatotoxicity (choleostasis)” value was determined as 0. Moreover, the results for the “Hepatotoxicity (acute)” value in series [10] and in series [15] were 4 and 42.8%, respectively. The “Hepatotoxicity (cytolytic)” value in series [11] was found to be 0. Besides, the “Hepatotoxicity (cirrhosis)” value in [12] is 0. Moreover, the “Hepatotoxicity (moderate)” value in series [13] amounted to 21; in series [16], 80%. In series [14], the “Hepatotoxicity (chronic liver disease)” value was 0.
Take `O=C1CC[C@@]2(O)[C@H]3Cc4ccc(O)c5c4[C@@]2(CCN3CC2CC2)[C@H]1O5` [NALTREXONE]: in [1] (Liver), the “Hepatotoxicity (severe hepatitis)” value amounted to 0. For the same compound, in [2], the “Hepatotoxicity (benign tumour)” value stood at 0. In addition, the “Hepatotoxicity (time to onset)” value in [3] is 1 month - 2 months. The “Hepatotoxicity (granulomatous hepatitis)” value in series [4] was determined as 0. Further, the “Hepatotoxicity (mechanism)” value in series [5] is “Dose-dependant”. In series [6], the “Hepatotoxicity (association with vascular disease)” value is 0. For the same compound, in [7], the “Hepatotoxicity (steatosis)” value was 0. For the same compound, the “Hepatotoxicity (malignant tumour)” value in series [8] was found to be 0. In addition, the “Hepatotoxicity (choleostasis)” value in [9] stood at 0. For the same compound, the “Hepatotoxicity (acute)” value came out at 3 in [10] and 0% in series [15] (Liver). Moreover, the “Hepatotoxicity (cytolytic)” value in series [11] turned out to be 3. Besides, the “Hepatotoxicity (cirrhosis)” value in series [12] amounted to 0. Besides, the entries for the “Hepatotoxicity (moderate)” value in series [13] and in [16] (Liver) were 9 and 20%, respectively. Moreover, the “Hepatotoxicity (chronic liver disease)” value in series [14] was found to be 0.
Regarding `Cc1ccnc2c1NC(=O)c1cccnc1N2C1CC1` [NEVIRAPINE], in [1], the “Hepatotoxicity (severe hepatitis)” value turned out to be 14. Further, the “Hepatotoxicity (benign tumour)” value in series [2] is listed as 0. Besides, the “Hepatotoxicity (time to onset)” value in [3] is 8 days - 3 years. Also, the “Hepatotoxicity (granulomatous hepatitis)” value in [4] is 0. For the same compound, in [5], the “Hepatotoxicity (mechanism)” value is reported as “Allergic”. Besides, the “Hepatotoxicity (association with vascular disease)” value in series [6] stood at 0. In series [7], the “Hepatotoxicity (steatosis)” value turned out to be 0. In addition, the “Hepatotoxicity (malignant tumour)” value in series [8] worked out at 0. The “Hepatotoxicity (choleostasis)” value in series [9] stood at 2. Also, the entries for the “Hepatotoxicity (acute)” value in [10] and in [15] were 49 and 37.5%, respectively. In [11], the “Hepatotoxicity (cytolytic)” value amounted to 29. Besides, the “Hepatotoxicity (cirrhosis)” value in series [12] is listed as 0. Moreover, the “Hepatotoxicity (moderate)” value in series [13] is 18; in series [16], 47.1%. Further, the “Hepatotoxicity (chronic liver disease)” value in series [14] is given as 0.
With `CC1(C)NC(=O)N(c2ccc([N+](=O)[O-])c(C(F)(F)F)c2)C1=O` [NILUTAMIDE], the “Hepatotoxicity (severe hepatitis)” value in series [1] (Liver) came out at 4. Moreover, the “Hepatotoxicity (benign tumour)” value in series [2] was 0. Further, the “Hepatotoxicity (time to onset)” value in [3] is given as 1 month - 4 months. Also, the “Hepatotoxicity (granulomatous hepatitis)” value in series [4] (Liver) is recorded as 0. Besides, in [5] (Liver), the “Hepatotoxicity (mechanism)” value is listed as “Reactive metabolite”. The “Hepatotoxicity (association with vascular disease)” value in [6] amounted to 0. Also, the “Hepatotoxicity (steatosis)” value in series [7] was 0. In addition, the “Hepatotoxicity (malignant tumour)” value in series [8] stood at 0. The “Hepatotoxicity (choleostasis)” value in series [9] (Liver) turned out to be 0. Further, the “Hepatotoxicity (acute)” value in series [10] is 5; in series [15] (Liver), 0%. The “Hepatotoxicity (cytolytic)” value in series [11] (Liver) is recorded as 4. In addition, in series [12], the “Hepatotoxicity (cirrhosis)” value came to 0. Moreover, the results for the “Hepatotoxicity (moderate)” value in [13] and in series [16] (Liver) were 5 and 8%, respectively. Moreover, in series [14], the “Hepatotoxicity (chronic liver disease)” value is reported as 0.
Take `Cc1cc2c(s1)Nc1ccccc1N=C2N1CCN(C)CC1` [OLANZAPINE]: the “Hepatotoxicity (severe hepatitis)” value in series [1] stood at 0. In [2], the “Hepatotoxicity (benign tumour)” value is recorded as 0. Moreover, the “Hepatotoxicity (time to onset)” value in series [3] is recorded as 13 days - 15 months. In addition, in [4], the “Hepatotoxicity (granulomatous hepatitis)” value is recorded as 0. In addition, the “Hepatotoxicity (mechanism)” value in [5] was “Allergic, Dose-dependant”. Also, in series [6], the “Hepatotoxicity (association with vascular disease)” value came out at 0. Moreover, the “Hepatotoxicity (steatosis)” value in series [7] came to 1. Moreover, the “Hepatotoxicity (malignant tumour)” value in series [8] worked out at 0. The “Hepatotoxicity (choleostasis)” value in series [9] was found to be 1. The figures for the “Hepatotoxicity (acute)” value in series [10] and in series [15] were 2 and 0%, respectively. In addition, in series [11], the “Hepatotoxicity (cytolytic)” value amounted to 2. In series [12], the “Hepatotoxicity (cirrhosis)” value was 0. For the same compound, the figures for the “Hepatotoxicity (moderate)” value in series [13] and in [16] were 13 and 30%, respectively. In addition, the “Hepatotoxicity (chronic liver disease)” value in [14] worked out at 0.
Take `O=c1[nH]c2ccccc2n1CCCN1CCN(C(c2ccccc2)c2ccccc2)CC1` [OXATOMIDE]: in series [1], the “Hepatotoxicity (severe hepatitis)” value amounted to 0. Besides, the “Hepatotoxicity (benign tumour)” value in [2] turned out to be 0. For the same compound, the “Hepatotoxicity (time to onset)” value in series [3] came out at 10 days - 3 months. In [4], the “Hepatotoxicity (granulomatous hepatitis)” value worked out at 0. The “Hepatotoxicity (mechanism)” value in series [5] is “Allergic”. Moreover, in series [6], the “Hepatotoxicity (association with vascular disease)” value is recorded as 0. The “Hepatotoxicity (steatosis)” value in series [7] is 0. Besides, the “Hepatotoxicity (malignant tumour)” value in series [8] was found to be 0. In addition, the “Hepatotoxicity (choleostasis)” value in series [9] was 2. The “Hepatotoxicity (acute)” value in series [10] is reported as 4; in series [15] it was 0%. Besides, in series [11], the “Hepatotoxicity (cytolytic)” value is listed as 3. Also, the “Hepatotoxicity (cirrhosis)” value in series [12] worked out at 0. The entries for the “Hepatotoxicity (moderate)” value in series [13] and in series [16] were 2 and 8.3%, respectively. Besides, the “Hepatotoxicity (chronic liver disease)” value in series [14] is 0.

Source of the values: ChEMBL document CHEMBL3137667, “[Drug-induced liver injury; fourteenth updated edition of the bibliographic database of liver injuries and related drugs]” (Gastroenterol Clin Biol, 2004).
